Assay results: US20090023667A1 (priority 2005, published 2009)
Like-named read-outs stand apart in the source and are kept apart here.

Columns and labels:
Pyricularia oryzae [1] = assay: whole plant or invertebrate; assay type: in vivo; conditions: for Control value: 60 ppm; for pest or weed control at 60 ppm: Pyricularia oryzae, 168 h, read-out: Control value
Pythium sp = assay: Test Example 9: control test on seedling blight (Pythium sp), irrigation; assay type: in vivo; conditions: irrigation 500 ml per box
Protocol: 150 g of rice seeds of rice (cultivar: Nihonbare) per a box was sowed on a commercial nursery box. After the sowing, the box was treated by irrigation with a compound solution which was diluted to the prescribed concentration at a ratio of 500 ml per a box before covering the seeds with soil. Infected soil, which was made by adding sterilized water to Pythium sp cultured on a PDA medium and pulverizing whole medium and mixing to a commercial soil, was used for a bed soil. After covering the seeds with soil, the seeds were incubated at 30 degree centigrade for 2 days and then arranged under a condition of 5 degree centigrade for 2 days to enhance disease emergence. After the low temperature treatment, the seeds were grown in a greenhouse.
(§1) Control Value=(1−number of infected seedlings in the treated plot/number of infected seedlings in the untreated plot)×100

Pyricularia oryzae [2] = assay type: in vivo
Rhizoctonia solani [3] = assay: Test Example 4: control test on paddy rice sheath blight, spraying; assay type: in vivo; conditions: 60 ppm
Protocol: A compound solution of a prescribed concentration was sprayed on three 1/5000a rice pots (cultivar: Koshihikari; 4 leaf stage). After one day from the spraying, Rhizoctonia solani cultured on a rice chaff/bran medium was inoculated on the basal of the rice plant. After 10 days from the inoculation, the extended lesion length of sheath blight of the whole stem was examined. The control value was calculated according to the following equation (3 replications).
(§2) Control Value=(1−average lesion length per a stem in the treated plot/average lesion length per a stem in the untreated plot)×100

Rhizoctonia solani [4] = assay: Test Example 6: control test on paddy rice sheath blight, nursery box application; assay type: in vivo; conditions: nursery box application of granule
Protocol: (§3) After 30 days from the treatment, Rhizoctonia solani cultured on a rice chaff/bran medium was inoculated on the basal of the rice plant. After 10 days from the inoculation, the extended lesion length of sheath blight of the whole stem was examined. The control value was calculated according to the following equation (3 replications).
as §2

Rhizoctonia solani [5] = assay: Test Example 5: control test on paddy rice sheath blight, submerged application; assay type: in vivo; conditions: submerged application of granule
Protocol: as §3, with “14” for “30”
as §2

Pyricularia oryzae [6] = assay type: in vivo; remark: listed apart in the source
Pyricularia oryzae [7] = assay type: in vivo; remark: listed apart in the source
Rhizopus chinensis = assay: Test Example 8: control test on seedling blight (Rhizopus sp), irrigation; assay type: in vivo; conditions: irrigation 500 ml per box
Protocol: 150 g of rice seeds (cultivar: Nihonbare) per a box was sowed in a commercial nursery box. After the sowing, the box was treated by irrigation with a compound solution which was diluted to the prescribed concentration at a ratio of 500 ml per a box before covering the seeds with soil. Infected soil, which was made by adding sterilized water to Rhizopus chinensis cultured on a PDA medium and pulverizing whole medium and mixing to a commercial soil, was used for a bed soil. For covering the seeds, a commercial soil was used as it was. After covering the seeds with soil, the seeds were incubated at 32 degree centigrade for 2 days and then grown in a greenhouse.
After 18 days from the sowing, the severity index for 300 seedlings per each compound was examined in the following criteria. The control value was calculated according to the following equation from the average severity obtained by averaging the severity index of each seedling.
Severity index 0: No lesion • 1: Root browning or fat root observed • 2: Defective growth • 3: Withered to death
(§4) Control Value=(1−average severity in the treated plot/average severity in the untreated plot)×100

rice Bakanae disease = assay: Test Example 7: control test on rice Bakanae disease, seed immersion; assay type: in vivo; conditions: seed immersion 24 hours
Protocol: 150 g of dry rice seeds of naturally infected with rice Bakanae disease (cultivar: Nihonbare) was immersed in a compound solution which was diluted with water to have a prescribed concentration at a volume ratio of 1:1 for 24 hours (liquid temperature; 20 degree centigrade) and air-dried. Subsequently, the seeds were soaked in water at 15 degree centigrade for 4 days and subjected to a sprouting in water at 30 degree centigrade for 24 hours, and then sowed in a nursery box. After the sowing, the seeds were incubated at 30 degree centigrade for 2 days and grown in a greenhouse. After 21 days from the sowing, the number of seedlings showing symptoms of Bankanae disease for 300 seedlings per each chemical was examined. The control value was calculated according to the following equation.
as §1

[8] = system: bacterial seedling blight; assay: Test Example 10: control test on bacterial seedling blight, seed immersion; assay type: in vivo; conditions: seed immersion 24 hours
Protocol: 150 g of dry rice seeds of naturally infected with bacterial seedling blight (cultivar: Nihonbare) was immersed in a compound solution which was diluted with water to have a prescribed concentration at a volume ratio of 1:1 (liquid temperature; 20 degree centigrade) for 24 hours and air-dried. Subsequently, the seeds were soaked in water at 15 degree centigrade for 4 days and subjected to a sprouting in water at 30 degree centigrade for 24 hours, and then sowed in a nursery box. After the sowing, the seeds were incubated at 30 degree centigrade for 2 days and grown in a greenhouse. After 21 days from the sowing, the severity index for 300 seedlings per each compound was examined on the basis of the following criteria, and the control value was calculated according to the following equation from the average severity obtained by averaging the severity index of each seedling.
Severity index 0: healthy seedling • 1: yellowing or etiolated seedling • 2: dead seedling (withered)
as §4

clubroot = assay: Test Example 11: control test on clubroot of cabbages, soil treatment; assay type: in vivo, Plasmodiophora brassicae; conditions: dust formulation mixed in soil, 60 gai/10a
Protocol: A dust formulation in a prescribed amount was mixed in soil and cabbage seedlings (cultivar: Shiki-dori) were planted in the field where was recognized to be infected by clubroot. After 60 days from the treatment, plants were picked out, and clubroot formation was examined according to the degree of severity. The control value was calculated according to the following equation from the average severity obtained by averaging the severity index in each plot.
Severity index 0: No clubroot formed • 1: Cluroot was formed at a portion of from not less than 1% to less than 25% of the whole root • 2: Cluroot was formed at a portion of from not less than 25% to less than 50% of the whole root • 3: Cluroot was formed at a portion of from not less than 50% to less than 75% of the whole root • 4: Cluroot was formed at a portion of not less than 75% of the whole root
as §4

[9] = rice blast, sprayed at 60 ppm active ingredient, lesions after 7 days

Work on `C=C(Cl)COC(=O)NC(CNC(=O)c1ccc(C)cc1)C(C)C` (stereo not shown) [Compound 15] yielded a Control value (Pyricularia oryzae [1]) of 94, a Control value (Pythium sp; 60 ppm) of 4 and a Control value (Pyricularia oryzae [2]; in vivo) of 95. It also gave a Control value (Rhizoctonia solani [3]) of 4, a Control value (Rhizoctonia solani [4]; 7.5 gai/box) of 3 and a Control value (Rhizoctonia solani [5]; 225 gai/10a) of 5. The Control value (Pyricularia oryzae [6]; in vivo) was 95 and the “Effect (class of control value)” value (Pyricularia oryzae [7]; in vivo) was “A (key: A: Not less than 80%; B: Not less than 50% to less than 80%; C: Less than 50%)”.
Work on `CC(C)NC(=O)N1CC(=O)N(c2cc(Cl)cc(Cl)c2)C1=O` [Iprodione, reference compound] yielded a Control value (Rhizopus chinensis; 1000 ppm) of 89.
`CCC(C)C(CNC(=O)c1nc2ccccc2s1)NC(=O)OCC(F)(F)F` (stereo not shown) [Compound 33] showed a Control value (Pyricularia oryzae [1]) of 96, a Control value (rice Bakanae disease; 60 ppm) of 8 and a Control value (Rhizoctonia solani [3]) of 6. For the same molecule, the “Effect (class of control value)” value (Pyricularia oryzae [7]; in vivo) was “A (key: A: Not less than 80%; B: Not less than 50% to less than 80%; C: Less than 50%)”.
`CC(C)C(CNC(=O)c1cc2ccccc2s1)NC(=O)OCC(F)(F)F` (stereo not shown) [Compound 34] gave a Control value (Pyricularia oryzae [1]) of 97, a Control value (Rhizopus chinensis; 60 ppm) of 3 and a Control value (Rhizoctonia solani [3]) of 7. The “Effect (class of control value)” value (Pyricularia oryzae [7]; in vivo) was “A (key: A: Not less than 80%; B: Not less than 50% to less than 80%; C: Less than 50%)”.
For `Cc1ccc(C(=O)NC(CNC(=O)OCC(F)(F)F)C(C)C)cc1` (stereo not shown) [Compound 6, N-(2,2,2-trifluoroethyloxycarbonyl)-N′-(4-methylbenzoyl)-3-methyl-1,2-butanediamine], the pest or weed control at 60 ppm (Pyricularia oryzae [1]) was 97%, the Control value (Pyricularia oryzae [2]; rice blast, submerged application of granule, 225 gai/10a) was 95 and the Control value (Rhizoctonia solani [3]) was 3. For the same molecule, the Control value (Rhizoctonia solani [4]; 7.5 gai/box) was 4, the Control value (Rhizoctonia solani [5]; 225 gai/10a) was 5 and the Control value (Pyricularia oryzae [6]; rice blast, nursery box application of granule, 7.5 gai/box) was 96. For the same molecule, the “Effect (class of control value)” value (Pyricularia oryzae [7]; [9]) was “A (Not less than 80%)”.
`N#Cc1c[nH]cc1-c1cccc2c1OC(F)(F)O2` [Fludioxonil, reference compound] was tested, and the Control value (rice Bakanae disease; 250 ppm) was 99.
In the case of `CCC(C)C(CNC(=O)c1cc2ccccc2o1)NC(=O)OCC(F)(F)F` (stereo not shown) [Compound 32], the Control value (Pyricularia oryzae [1]) is reported as 95, the Control value (rice Bakanae disease; 60 ppm) is reported as 12 and the Control value (Rhizoctonia solani [3]) is reported as 5. The “Effect (class of control value)” value (Pyricularia oryzae [7]; in vivo) was “A (key: A: Not less than 80%; B: Not less than 50% to less than 80%; C: Less than 50%)”.
With `Cc1ccc(C(=O)NC(CNC(=O)OC2CCCCC2Cl)C(C)C)cc1` (stereo not shown) [Compound 17, N-(2-chlorocyclohexyloxycarbonyl)-N′-(4-methylbenzoyl)-3-methyl-1,2-butanediamine] the pest or weed control at 60 ppm (Pyricularia oryzae [1]) was 95%, the Control value (Rhizopus chinensis; 60 ppm) was 3 and the Control value (Rhizoctonia solani [3]) was 5. The “Effect (class of control value)” value (Pyricularia oryzae [7]; [9]) was “A (Not less than 80%)”.
Work on `N#Cc1c(Cl)c(Cl)c(Cl)c(C#N)c1Cl` [TPN, reference compound] yielded a Control value (Rhizopus chinensis; 800 ppm) of 87.
In the case of `CCCCNC(=O)n1c(NC(=O)OC)nc2ccccc21` [Benomyl, reference compound], the Control value (rice Bakanae disease; 1000 ppm) is reported as 98.
`Cc1cc(O)no1` [Hydroxyisoxazole, reference compound] was tested, and the Control value (Pythium sp; 800 ppm) was 90.
`CNC(=O)/C(=N/OC)c1ccccc1CO/N=C(C)/C(=N/OC)C(/C)=N/OC` [Oryzastrobin, reference compound] gave a Control value (Pyricularia oryzae [2]; rice blast, submerged application of granule, 100 gai/10a) of 99, a Control value (Rhizoctonia solani [4]; 3.5 gai/box) of 94 and a Control value (Rhizoctonia solani [5]; 100 gai/10a) of 95.
`CCn1cc(C(=O)O)c(=O)c2cc3c(cc21)OCO3` [Oxolinic acid, reference compound] gave a Control value ([8]; 500 ppm) of 89.
For `O=[N+]([O-])c1ccc(NS(=O)(=O)c2ccc(Cl)c(C(F)(F)F)c2)c(Cl)c1` [Flusulfamide], the Control value (clubroot) was 93.
`CC(C)C(CNC(=O)c1cc2ccccc2o1)NC(=O)OCC(F)(F)F` (stereo not shown) [Compound 28] showed a Control value (Pyricularia oryzae [1]) of 97, a Control value (Pyricularia oryzae [2]; in vivo) of 96 and a Control value (Rhizoctonia solani [3]) of 6. It also gave a Control value (Rhizoctonia solani [4]; 7.5 gai/box) of 5, a Control value (Rhizoctonia solani [5]; 225 gai/10a) of 6 and a Control value (Pyricularia oryzae [6]; in vivo) of 96. The “Effect (class of control value)” value (Pyricularia oryzae [7]; in vivo) was “A (key: A: Not less than 80%; B: Not less than 50% to less than 80%; C: Less than 50%)” and the Control value ([8]; 60 ppm) was 6.
